Assay results published in patent publication US10568892B2, “Cycloartane tetracyclic triterpenoid compound, preparation method therefor and use thereof” (Hefei Cosource Pharmaceuticals Inc., priority 2016, dated 2020).
Marks after values point to notes of the source that are not given here.

Legend:
SD rats [1] = assay: Rat myocardial ischemia model with coronary artery ligation and reperfusion (arrhythmia incidence); assay type: in vivo; conditions: injection (sublingually) 5 min before ischemia
Text: Method: SD rats were anesthetized with pentobarbital, and a cervical midline incision was made to separate and cut off the trachea such that it was connected to a respirator. The skin was cut along the midline of the left clavicle of the rat, and the chest was opened between the left third and fourth ribs to gently squeeze out the heart. The pericardium was opened, the needle was inserted at the left edge of the pulmonary artery cone and 2 mm at the lower edge of the left atrial appendage. The 6-0 non-invasive suture was threaded through the superficial myocardium, with the left anterior descending coronary artery (LAD) located thereon. After stabilization for 5 min, a double-layer plastic cannula was put on, and the cable tie was tighten to complete the myocardial ischemia induced by left coronary artery occlusion. The criterion for myocardial ischemia is the occurrence of myocardial infarction (St-segment ran up or T-wave was shown as high sharp wave) in the electrocardiogram and the presence of local cyanosis in the heart. After 5 min of myocardial ischemia, the inner cannula was withdrawn, that is, the wire knot was released for reperfusion, and the electrocardiogram of reperfusion in the rat was recorded.
The administration was performed at 5 min before the ischemia by coronary artery ligation, and the administration mode was injection administration (sublingually).

guinea pig heart = assay: Atrial fibrillation induced by high- and low-potassium Langendorff perfusion of the guinea pig heart; conditions: 1 μM; within 60 min of low-potassium perfusion
Text: Method: a total of 24 guinea pigs were divided into 4 groups according to body weight, and were sacrificed. The heart was quickly taken out, and the blood was squeezed in the ice bath perfusion solution. The heart was quickly transferred in the Langendorff perfusion system, and the perfusion at a constant rate was started by turning on the oxygen-saturated perfusate. One end of the electrode was placed at the cardiac apex, and one end was placed at the right atrium (the position of the atrial appendage). The electrocardiogram was recorded on the computer.
After the heart was stabilized, 10 min after the perfusion of high-K perfusate, blank vehicle, 0.1 μM, 1 μM, and 10 μM of Compound 369, 1 μM Amiodarone and Cyclovirobuxine D were simultaneously administrated and the high K perfusion was continued for 20 min, respectively. Then, the high K perfusion was removed to administrate the low-K perfusate, and the electrocardiogram was obtained at the same time to record whether there was atrial fibrillation within 60 min of low-potassium perfusion.

[2] = tested on: ventricular papillary muscle cell of guinea pig; assay: Action potential of the ventricular papillary muscle cell of guinea pig (electrophysiological recording); assay type: cell-based; conditions: n = 6, x ± SD
Experimental: Method: One guinea pig was taken to violently hit the back of the brain such that it fainted. The common carotid artery was cut off for bleeding to kill the guinea pig. The chest was incised to expose the heart, and the ventricle was cut open along the interventricular septum to expose the lumen of the left ventricle. The papillary muscles were quickly taken out and placed in a Kreb's solution saturated with O2 (mixed gas of 95% O2 and 5% CO2) at 0° C. After the microscopic dressing, the papillary muscle specimen was fixed with a stainless steel needle on the silicone rubber at the bottom of the perfusion bath, and perfused with the oxygen-saturated Kreb's solution. The relevant parameters for perfusion: the temperature was 37±0.5° C., and the flow rate was 4 mL/min.
Cellular action potentials were recorded using a conventional electrophysiological method. The glass electrode filled with 3M KCl saturated solution and having a tip resistance of 15-30 MΩ was fixed on the microelectrode manipulator MP-2. The glass electrode was gently inserted into the superficial layer of the prepared papillary muscle specimen using a microelectrode pusher. The electrode was adjusted to provide the predetermined bioelectrical stimulation with the triple-channel SEN-7203 electronic stimulator and SS-202 J isolator. The bioelectrical signal was amplified by the MEZ-8301 amplifier and then input to the computerized electrophysiological recording and analysis system Powerlab 4/25. Subsequently, the relevant parameters of the action potential for the ventricular papillary muscle were analyzed through the analysis system. The relevant parameters for electrical stimulation: 30 ms latency, 7 ms wavewidth, 1 Hz frequency, 52.1 my stimulation intensity.
In the compound screening test stage, after the ventricular papillary muscle specimen of the guinea pig was fixed, it was first perfused with a normal Kreb's solution for about 85 minutes for stabilization, and the relevant parameters of the cellular action potential before administration were recorded at about 80 min after the start of perfusion. The three-limb tube was used to convert the perfusates containing the title compounds. The title compounds were continuously perfused for about 25 min successively with low (0.0005 μM), medium (0.005 μM), and high (0.05 μM) concentrations, respectively. At about 20 min after the start of drug perfusions at different concentrations, the relevant parameters of the action potentials for the ventricular papillary muscle of guinea pig were observed and recorded, respectively. The normal Kreb's solution was used to perfuse and elute for about 25 min during the intervals between drug perfusions at different concentrations.
The experiment was divided into the following five groups with 6 animals in each group: a vehicle control group, a 369 low dose (0.0005 μM) group, a 369 medium dose (0.005 μM) group, a 369 high dose (0.05 μM) group, and an amiodarone (10 μM) positive control group. After the ventricular papillary muscle specimen of the guinea pig was fixed, it was first perfused with a normal Kreb's solution for about 85 minutes for stabilization, and the relevant parameters of the cellular action potential before administration were recorded at about 80 min after the start of perfusion. According to groups, the three-limb tube was configured to convert the perfusates containing the vehicle, positive control, or Compound 369 at the corresponding concentrations to continuously perfuse for about 25 min. At about 20 min after the start of the perfusions, the relevant parameters of the action potentials for the ventricular papillary muscle of guinea pig were observed and recorded.

SD rats [3] = assay: Single-dose toxicity (MTD) in SD rats; assay type: in vivo; conditions: SD rat; single intravenous injection
Text: (§1) The results of the experimental study on the toxicity of Compound 369 administrated through a single intravenous or intragastrical administration in SD rats and KM mice are shown in Table 9.

[4] = tested on: ventricular myocytes of guinea pig; conditions: literature, cited from earlier work
[5] = Pharmacokinetics in Beagle canines; assay type: in vivo; conditions: Beagle canines; 2 mg/kg; intragastrical administration
Experimental: Method: Six healthy male Beagle canines were selected and divided into two groups. 2 mg/kg of Compound 369 or cyclovirobuxine D was administrated intragastrically, respectively. Blood samples (about 2 mL) were collected from the limb venous of canines 0 h before administration as well as 0.25 h, 0.5 h, 1 h, 2 h, 4 h, 6 h, 8 h, and 12 h after administration. The concentrations of Compound 369 and cyclovirobuxine D in plasma samples were determined by LC-MS/MS, and the pharmacokinetic parameters were calculated by DAS.3.0 software.

KM mice = assay: Single-dose toxicity (MTD) in KM mice; assay type: in vivo; conditions: KM mouse; single intragastrical administration
Text: as §1

[6] = Pharmacokinetics in SD rats; assay type: in vivo, rat; conditions: SD rats, 2 mg/kg
Experimental: Method: twelve SD male rats were divided into four groups: 2 mg/kg of Compound 369 or cyclovirobuxine D was single dose through the intravenous injection or intragastrical administration, respectively. In the intravenous and intragastrical groups, blood samples (about 0.3 Ml) were collected from the posterior orbital venous plexus pro-dose and 0.25 h, 0.5 h, 1 h, 2 h, 4 h, 6 h, 8 h, and 12 h post-dose. The concentrations of Compound 369 and cyclovirobuxine D in plasma samples were determined by LC-MS/MS, and the pharmacokinetic parameters were calculated by DAS.3.0 software.

CCCCc1oc2ccccc2c1C(=O)c1cc(I)c(OCCN(CC)CC)c(I)c1 [Amiodarone, reference compound]
Death (%) (SD rats [1]; 3 mg/kg): 13% | Death n (SD rats [1]; 3 mg/kg): 1 | Ventricular fibrillation (%) (SD rats [1]; 3 mg/kg): 38% | Ventricular fibrillation n (SD rats [1]; 3 mg/kg): 3 | Ventricular premature beat (%) (SD rats [1]; 3 mg/kg): 100% | Ventricular premature beat n (SD rats [1]; 3 mg/kg): 8 | Ventricular tachycardia (%) (SD rats [1]; 3 mg/kg): 87% | Ventricular tachycardia n (SD rats [1]; 3 mg/kg): 7 | Incidence (%) of atrial fibrillation (guinea pig heart): 17% | Number of animals developing atrial fibrillation (guinea pig heart): 1 | percent change in action potential duration at 10 µM ([2]; Cavia porcellus, 20 min, 10 μM, read-out: APD, Change rate (%)): 56.8% | APD50, Change rate (%) ([2]; 10 μM): 93.34% ± 53.59%^b | APD50, Post-administration ([2]; 10 μM): 0.0590 ± 0.0269^a | APD90, Change rate (%) ([2]; 10 μM): 68.91% ± 33.59%^b | APD90, Post-administration ([2]; 10 μM): 0.0862 ± 0.0275^a | APD, Post-administration ([2]; 10 μM): 0.1028 ± 0.0258^a | APD50, Pre-administration ([2]; 10 μM group, baseline): 0.0313 ± 0.0131 | APD90, Pre-administration ([2]; 10 μM group, baseline): 0.0524 ± 0.0175

CN[C@@H](C)[C@H]1[C@H](O)C[C@@]2(C)[C@@H]3CC[C@H]4C(C)(C)[C@@H](NC)CC[C@@]45C[C@@]35CC[C@]12C [Cyclovirobuxine D, reference compound]
Death (%) (SD rats [1]; 1 mg/kg): 50% | Death n (SD rats [1]; 1 mg/kg): 3 | Ventricular fibrillation (%) (SD rats [1]; 1 mg/kg): 83% | Ventricular fibrillation n (SD rats [1]; 1 mg/kg): 5 | Ventricular premature beat (%) (SD rats [1]; 1 mg/kg): 100% | Ventricular premature beat n (SD rats [1]; 1 mg/kg): 6 | Ventricular tachycardia (%) (SD rats [1]; 1 mg/kg): 100% | Ventricular tachycardia n (SD rats [1]; 1 mg/kg): 6 | Maximum tolerance dose (MTD) (SD rats [3]): 5 mg/kg | Effect on APD of the action potential (in words) ([4]; 0.024 μM): can prolong the APD | Spontaneous activity frequency of cardiomyocytes (in words) ([4]; 0.012-0.036 μM): slow down or even disappear | AUCt [5]: 274.3 ng·h/mL | Cmax [5]: 19.09 ng/mL | T1/2 [5]: 15.90 h | Tmax [5]: 3.55 h | Maximum tolerance dose (MTD) (KM mice): 400 mg/kg | Incidence (%) of atrial fibrillation (guinea pig heart): 83% | Number of animals developing atrial fibrillation (guinea pig heart): 5 | AUCt ([6]; intragastrical administration): 110.6 ng·h/mL | Cmax ([6]; intragastrical administration): 16.30 ng/mL | F ([6]; intragastrical administration): 36% | T1/2 ([6]; intragastrical administration): 18.85 h | Tmax ([6]; intragastrical administration): 2.75 h | AUCt ([6]; intravenous injection): 310.0 ng·h/mL | Cmax ([6]; intravenous injection): 146.2 ng/mL | T1/2 ([6]; intravenous injection): 8.54 h | Tmax ([6]; intravenous injection): 0.25 h
